Laboratory results taken from ChEMBL document CHEMBL3885861, “Open TG-GATES”.

Species: Rattus norvegicus
Test: Open TG-GATES - Regimen: Single
Assay type: toxicity, organism-based, Sprague-Dawley
Parameters: regimen Single, gender Male, age 6 weeks
Conditions: in vivo, po, 20 mg/kg, route gavage, dose level Low; for APTT / Bas / Eos / Fbg / Hb / Ht / Lym / MCH / MCHC / MCV / Mono / Neu / PT / Plat / RBC / Ret / WBC: tissue Blood; for KIDNEY_L / KIDNEY_R / KIDNEY_TOTAL: tissue Kidney; for LIVER: tissue Liver; for A/G / ALP / ALT / AST / BUN / CRE / Ca / Cl / DBIL / GLC / IP / K / LDH / Na / PL / RALB / TBIL / TC / TG / TP / gamma-GTP: tissue Plasma

Question: For `Cn1c(=O)c2[nH]cnc2n(C)c1=O.O` [THEOPHYLLINE], which TERMINAL_BW (3 h) is on record?
Answer: 211.4 g

Question: And the APTT (3 h)?
Answer: 22.4 s

Question: What about the Bas (3 h) of the same molecule?
Answer: 0%

Question: And the Eos (3 h)?
Answer: 1%

Question: And the Fbg (3 h)?
Answer: 298.2 mg/dL

Question: And the Hb (3 h)?
Answer: 13.1 g/dL

Question: And the Ht (3 h)?
Answer: 39.2%

Question: And the Lym (3 h)?
Answer: 80.4%

Question: What about the MCH (3 h) of the same molecule?
Answer: 21.1 pg

Question: What about the MCHC (3 h) of the same molecule?
Answer: 33.5%

Question: What about the MCV (3 h) of the same molecule?
Answer: 62.9 fL

Question: And the Mono (3 h)?
Answer: 2.4%

Question: What about the Neu (3 h) of the same molecule?
Answer: 15.2%

Question: What about the PT (3 h) of the same molecule?
Answer: 15.8 s

Question: And the Plat (3 h)?
Answer: 125.8 x10_4/uL

Question: And the RBC (3 h)?
Answer: 623 x10_4/ul

Question: What about the Ret (3 h) of the same molecule?
Answer: 7.2%

Question: And the WBC (3 h)?
Answer: 83.9 x10_2/uL

Question: What about the KIDNEY_L (3 h) of the same molecule?
Answer: 0.9 g

Question: And the KIDNEY_R (3 h)?
Answer: 0.9 g

Question: What about the KIDNEY_TOTAL (3 h) of the same molecule?
Answer: 1.8 g

Question: What about the LIVER (3 h) of the same molecule?
Answer: 9.4 g

Question: What about the A/G (3 h) of the same molecule?
Answer: 1.3

Question: And the ALP (3 h)?
Answer: 1988.6 IU/L

Question: What about the ALT (3 h) of the same molecule?
Answer: 46.8 IU/L

Question: What about the AST (3 h) of the same molecule?
Answer: 75 IU/L

Question: What about the BUN (3 h) of the same molecule?
Answer: 14.4 mg/dL

Question: And the CRE (3 h)?
Answer: 0.2 mg/dL

Question: And the Ca (3 h)?
Answer: 10.6 mg/dL

Question: What about the Cl (3 h) of the same molecule?
Answer: 108.8 meq/L

Question: What about the DBIL (3 h) of the same molecule?
Answer: 0 mg/dL

Question: What about the GLC (3 h) of the same molecule?
Answer: 181.8 mg/dL

Question: What about the IP (3 h) of the same molecule?
Answer: 7.2 mg/dL

Question: What about the K (3 h) of the same molecule?
Answer: 3.5 meq/L

Question: What about the LDH (3 h) of the same molecule?
Answer: 159.2 IU/L

Question: And the Na (3 h)?
Answer: 141.8 meq/L

Question: And the PL (3 h)?
Answer: 137.4 mg/dL

Question: And the RALB (3 h)?
Answer: 3.2 g/dL

Question: What about the TBIL (3 h) of the same molecule?
Answer: 0.02 mg/dL

Question: And the TC (3 h)?
Answer: 80.6 mg/dL

Question: What about the TG (3 h) of the same molecule?
Answer: 45.4 mg/dL

Question: And the TP (3 h)?
Answer: 5.8 g/dL

Question: What about the gamma-GTP (3 h) of the same molecule?
Answer: 1.2 IU/L

Question: What about the TERMINAL_BW (6 h) of the same molecule?
Answer: 213.7 g

Question: What about the APTT (6 h) of the same molecule?
Answer: 23.5 s

Question: And the Bas (6 h)?
Answer: 0%

Question: And the Eos (6 h)?
Answer: 0.6%

Question: And the Fbg (6 h)?
Answer: 315.4 mg/dL

Question: What about the Hb (6 h) of the same molecule?
Answer: 13.8 g/dL

Question: And the Ht (6 h)?
Answer: 41.9%

Question: What about the Lym (6 h) of the same molecule?
Answer: 82.8%

Question: What about the MCH (6 h) of the same molecule?
Answer: 20.8 pg

Question: And the MCHC (6 h)?
Answer: 33.1%

Question: And the MCV (6 h)?
Answer: 63 fL

Question: What about the Mono (6 h) of the same molecule?
Answer: 2.4%

Question: What about the Neu (6 h) of the same molecule?
Answer: 12.8%

Question: What about the PT (6 h) of the same molecule?
Answer: 15.5 s

Question: What about the Plat (6 h) of the same molecule?
Answer: 129.9 x10_4/uL

Question: And the RBC (6 h)?
Answer: 664.6 x10_4/ul

Question: And the Ret (6 h)?
Answer: 7.4%

Question: What about the WBC (6 h) of the same molecule?
Answer: 99.4 x10_2/uL

Question: And the KIDNEY_L (6 h)?
Answer: 0.9 g

Question: And the KIDNEY_R (6 h)?
Answer: 0.9 g

Question: And the KIDNEY_TOTAL (6 h)?
Answer: 1.9 g

Question: And the LIVER (6 h)?
Answer: 9 g

Question: What about the A/G (6 h) of the same molecule?
Answer: 1.2

Question: What about the ALP (6 h) of the same molecule?
Answer: 1532.8 IU/L

Question: And the ALT (6 h)?
Answer: 46 IU/L

Question: What about the AST (6 h) of the same molecule?
Answer: 85.2 IU/L

Question: What about the BUN (6 h) of the same molecule?
Answer: 9.8 mg/dL

Question: What about the CRE (6 h) of the same molecule?
Answer: 0.2 mg/dL

Question: What about the Ca (6 h) of the same molecule?
Answer: 10.5 mg/dL

Question: And the Cl (6 h)?
Answer: 108.2 meq/L

Question: What about the DBIL (6 h) of the same molecule?
Answer: 0 mg/dL

Question: And the GLC (6 h)?
Answer: 178.2 mg/dL

Question: And the IP (6 h)?
Answer: 8.4 mg/dL

Question: What about the K (6 h) of the same molecule?
Answer: 3.8 meq/L

Question: And the LDH (6 h)?
Answer: 174.8 IU/L

Question: And the Na (6 h)?
Answer: 141 meq/L

Question: What about the PL (6 h) of the same molecule?
Answer: 126.6 mg/dL

Question: And the RALB (6 h)?
Answer: 3.1 g/dL

Question: And the TBIL (6 h)?
Answer: 0.02 mg/dL

Question: What about the TC (6 h) of the same molecule?
Answer: 73.2 mg/dL

Question: What about the TG (6 h) of the same molecule?
Answer: 51.8 mg/dL

Question: And the TP (6 h)?
Answer: 5.6 g/dL

Question: What about the gamma-GTP (6 h) of the same molecule?
Answer: 1.2 IU/L
